Source: ChEMBL document CHEMBL1126299, “Synthesis and structure-activity relationships of cephalosporins with C-3' catechol-containing residues” (J Med Chem, 1992)
≈ marks a conversion by molar mass, not a printed value.

Test system: not listed separately
Experiment: The compound was evaluated for area under the curve in marmosets
Assay type: ADME
Conditions: callithrix, in vivo

Structure (SMILES)	AUC [mg/h/L]
CCn1cc(C(=O)NCC2=C(C(=O)O)N3C(=O)[C@@H](NC(=O)/C(=N\OC(C)(C)C(=O)O)c4csc(N)n4)C3SC2)c(=O)c2cc(O)c(O)cc21 (some centres not stated)	238.5

Test system: not listed separately
Experiment: The half life period in marmosets
Assay type: ADME
Conditions: callithrix, in vivo

Structure (SMILES)	half-life [h]
CCn1cc(C(=O)NCC2=C(C(=O)O)N3C(=O)[C@@H](NC(=O)/C(=N\OC(C)(C)C(=O)O)c4csc(N)n4)C3SC2)c(=O)c2cc(O)c(O)cc21 (some centres not stated)	3.47

Target: Beta-lactamase TEM (Escherichia coli) (UniProt P62593)
Sequence (P62593 whole entry): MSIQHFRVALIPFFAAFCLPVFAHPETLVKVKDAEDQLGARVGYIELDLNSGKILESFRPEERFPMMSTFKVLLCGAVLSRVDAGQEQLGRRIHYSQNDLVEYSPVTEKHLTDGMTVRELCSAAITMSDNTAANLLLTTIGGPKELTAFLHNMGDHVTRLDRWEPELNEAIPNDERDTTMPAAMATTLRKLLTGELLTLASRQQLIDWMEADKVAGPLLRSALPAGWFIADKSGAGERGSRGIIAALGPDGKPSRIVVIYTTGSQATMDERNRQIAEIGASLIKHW
Experiment: The dissociation constant of compound was tested for beta-Lactamase stability
Conditions: not given

Structure (SMILES)	pKa
CCn1cc(C(=O)NCC2=C(C(=O)O)N3C(=O)[C@@H](NC(=O)/C(=N\OC(C)(C)C(=O)O)c4csc(N)n4)C3SC2)c(=O)c2cc(O)c(O)cc21 (some centres not stated)	7.2

Species on record: Homo sapiens
Experiment: Compound is evaluated for serum protein binding in human blood (protein binding in marmoset blood)
Assay type: functional
Conditions: not given

Structure (SMILES)	Activity [%]
CCn1cc(C(=O)NCC2=C(C(=O)O)N3C(=O)[C@@H](NC(=O)/C(=N\OC(C)(C)C(=O)O)c4csc(N)n4)C3SC2)c(=O)c2cc(O)c(O)cc21 (some centres not stated)	99.2

Test system: not listed separately
Experiment: The compound was tested for % urinary recovery in marmosets at the dose of 3 mg/kg
Assay type: ADME, organism-based
Design: dose 3 mg/kg
Conditions: callithrix, urine, read-out: Recovery

Structure (SMILES)	dose excreted [%]
CCn1cc(C(=O)NCC2=C(C(=O)O)N3C(=O)[C@@H](NC(=O)/C(=N\OC(C)(C)C(=O)O)c4csc(N)n4)C3SC2)c(=O)c2cc(O)c(O)cc21 (some centres not stated)	13.9

Test system: Staphylococcus aureus
Experiment: microbe, parasite or virus in culture
Conditions: not given

Structure (SMILES)	MIC [µg/mL]
CCn1cc(C(=O)NCC2=C(C(=O)O)N3C(=O)[C@@H](NC(=O)/C(=N\OC(C)(C)C(=O)O)c4csc(N)n4)C3SC2)c(=O)c2cc(O)c(O)cc21 (some centres not stated)	16 (≈ 22.4 µM)

Test system: Citrobacter freundii
Experiment: microbe, parasite or virus in culture
Conditions: not given

Structure (SMILES)	MIC [µg/mL]
CCn1cc(C(=O)NCC2=C(C(=O)O)N3C(=O)[C@@H](NC(=O)/C(=N\OC(C)(C)C(=O)O)c4csc(N)n4)C3SC2)c(=O)c2cc(O)c(O)cc21 (some centres not stated)	0.125 (≈ 0.175 µM)

Test system: Citrobacter freundii
Experiment: microbe, parasite or virus in culture
Conditions: not given
Remark: another data set of the same source

Structure (SMILES)	MIC [µg/mL]
CCn1cc(C(=O)NCC2=C(C(=O)O)N3C(=O)[C@@H](NC(=O)/C(=N\OC(C)(C)C(=O)O)c4csc(N)n4)C3SC2)c(=O)c2cc(O)c(O)cc21 (some centres not stated)	0.008 (≈ 0.0112 µM)

Test system: Enterobacter cloacae
Experiment: microbe, parasite or virus in culture
Conditions: not given

Structure (SMILES)	MIC [µg/mL]
CCn1cc(C(=O)NCC2=C(C(=O)O)N3C(=O)[C@@H](NC(=O)/C(=N\OC(C)(C)C(=O)O)c4csc(N)n4)C3SC2)c(=O)c2cc(O)c(O)cc21 (some centres not stated)	1 (≈ 1.4 µM)

Test system: Escherichia coli
Experiment: microbe, parasite or virus in culture
Conditions: not given

Structure (SMILES)	MIC [µg/mL]
CCn1cc(C(=O)NCC2=C(C(=O)O)N3C(=O)[C@@H](NC(=O)/C(=N\OC(C)(C)C(=O)O)c4csc(N)n4)C3SC2)c(=O)c2cc(O)c(O)cc21 (some centres not stated)	0.008 (≈ 0.0112 µM)

Test system: Enterobacter cloacae
Experiment: microbe, parasite or virus in culture
Conditions: not given
Remark: another data set of the same source

Structure (SMILES)	MIC [µg/mL]
CCn1cc(C(=O)NCC2=C(C(=O)O)N3C(=O)[C@@H](NC(=O)/C(=N\OC(C)(C)C(=O)O)c4csc(N)n4)C3SC2)c(=O)c2cc(O)c(O)cc21 (some centres not stated)	0.25 (≈ 0.349 µM)

Test system: Enterobacter cloacae
Experiment: microbe, parasite or virus in culture
Conditions: not given
Remark: another data set of the same source

Structure (SMILES)	MIC [µg/mL]
CCn1cc(C(=O)NCC2=C(C(=O)O)N3C(=O)[C@@H](NC(=O)/C(=N\OC(C)(C)C(=O)O)c4csc(N)n4)C3SC2)c(=O)c2cc(O)c(O)cc21 (some centres not stated)	0.06 (≈ 0.0838 µM)

Test system: Enterobacter cloacae
Experiment: microbe, parasite or virus in culture
Conditions: not given
Remark: another data set of the same source

Structure (SMILES)	MIC [µg/mL]
CCn1cc(C(=O)NCC2=C(C(=O)O)N3C(=O)[C@@H](NC(=O)/C(=N\OC(C)(C)C(=O)O)c4csc(N)n4)C3SC2)c(=O)c2cc(O)c(O)cc21 (some centres not stated)	0.06 (≈ 0.0838 µM)

Test system: Escherichia coli
Experiment: microbe, parasite or virus in culture
Conditions: not given
Remark: another data set of the same source

Structure (SMILES)	MIC [µg/mL]
CCn1cc(C(=O)NCC2=C(C(=O)O)N3C(=O)[C@@H](NC(=O)/C(=N\OC(C)(C)C(=O)O)c4csc(N)n4)C3SC2)c(=O)c2cc(O)c(O)cc21 (some centres not stated)	0.008 (≈ 0.0112 µM)

Test system: Pseudomonas aeruginosa
Experiment: microbe, parasite or virus in culture
Conditions: not given

Structure (SMILES)	MIC [µg/mL]
CCn1cc(C(=O)NCC2=C(C(=O)O)N3C(=O)[C@@H](NC(=O)/C(=N\OC(C)(C)C(=O)O)c4csc(N)n4)C3SC2)c(=O)c2cc(O)c(O)cc21 (some centres not stated)	0.008 (≈ 0.0112 µM)

Test system: Pseudomonas aeruginosa
Experiment: microbe, parasite or virus in culture
Conditions: not given
Remark: another data set of the same source

Structure (SMILES)	MIC [µg/mL]
CCn1cc(C(=O)NCC2=C(C(=O)O)N3C(=O)[C@@H](NC(=O)/C(=N\OC(C)(C)C(=O)O)c4csc(N)n4)C3SC2)c(=O)c2cc(O)c(O)cc21 (some centres not stated)	0.06 (≈ 0.0838 µM)

Test system: Pseudomonas aeruginosa
Experiment: microbe, parasite or virus in culture
Conditions: not given
Remark: another data set of the same source

Structure (SMILES)	MIC [µg/mL]
CCn1cc(C(=O)NCC2=C(C(=O)O)N3C(=O)[C@@H](NC(=O)/C(=N\OC(C)(C)C(=O)O)c4csc(N)n4)C3SC2)c(=O)c2cc(O)c(O)cc21 (some centres not stated)	0.008 (≈ 0.0112 µM)

Test system: Pseudomonas aeruginosa
Experiment: microbe, parasite or virus in culture
Conditions: not given
Remark: another data set of the same source

Structure (SMILES)	MIC [µg/mL]
CCn1cc(C(=O)NCC2=C(C(=O)O)N3C(=O)[C@@H](NC(=O)/C(=N\OC(C)(C)C(=O)O)c4csc(N)n4)C3SC2)c(=O)c2cc(O)c(O)cc21 (some centres not stated)	0.008 (≈ 0.0112 µM)

Test system: Providencia stuartii
Experiment: microbe, parasite or virus in culture
Conditions: not given

Structure (SMILES)	MIC [µg/mL]
CCn1cc(C(=O)NCC2=C(C(=O)O)N3C(=O)[C@@H](NC(=O)/C(=N\OC(C)(C)C(=O)O)c4csc(N)n4)C3SC2)c(=O)c2cc(O)c(O)cc21 (some centres not stated)	8 (≈ 11.2 µM)

Test system: Providencia stuartii
Experiment: microbe, parasite or virus in culture
Conditions: not given
Remark: another data set of the same source

Structure (SMILES)	MIC [µg/mL]
CCn1cc(C(=O)NCC2=C(C(=O)O)N3C(=O)[C@@H](NC(=O)/C(=N\OC(C)(C)C(=O)O)c4csc(N)n4)C3SC2)c(=O)c2cc(O)c(O)cc21 (some centres not stated)	0.25 (≈ 0.349 µM)

Test system: Staphylococcus aureus
Experiment: microbe, parasite or virus in culture
Conditions: not given
Remark: another data set of the same source

Structure (SMILES)	MIC [µg/mL]
CCn1cc(C(=O)NCC2=C(C(=O)O)N3C(=O)[C@@H](NC(=O)/C(=N\OC(C)(C)C(=O)O)c4csc(N)n4)C3SC2)c(=O)c2cc(O)c(O)cc21 (some centres not stated)	16 (≈ 22.4 µM)

Test system: Pseudomonas aeruginosa
Experiment: microbe, parasite or virus in culture
Conditions: not given
Remark: another data set of the same source

Structure (SMILES)	MIC [µg/mL]
CCn1cc(C(=O)NCC2=C(C(=O)O)N3C(=O)[C@@H](NC(=O)/C(=N\OC(C)(C)C(=O)O)c4csc(N)n4)C3SC2)c(=O)c2cc(O)c(O)cc21 (some centres not stated)	0.008 (≈ 0.0112 µM)
